From patent US4603142A, “Cholesterol lowering method of use” (Wisconsin Alumni Research Foundation, priority 1984, dated 1986)

Tests used:
[1] = system: Fatty Acid Synthetase; assay: Hepatic fatty acid synthetase activity in 13-week-old WLH male chickens; format: in vivo, chicken; conditions: 20 ppm in corn diet, fed four weeks, liver
From the text: (§1) These responses were attributed to the presence in the small grains of relatively high concentrations of beta-D-glucans and pentosans. A long-standing interest in lipid metabolism prompted us to examine certain lipogenic and cholesterolgenic enzymes in the tissues of these birds. Methods used for handling blood samples, preparing subcellular fractions of liver and assay procedures for beta-hydroxy-beta-methylglutaryl coenzyme A (HMG Co-A) reductase, fatty acid synthetase (FAS), plasma cholesterol and triglycerides and the statistical treatment of the data have been described [Qureshi AA et al. (1980): Regulation of lipid metabolism in chicken livers by dietary cereals, J Nutr 110:388-393].
Cholesterol inhibitor I was re-chromatographed by HPLC and the UV absorption spectrum obtained. Maximum absorption occurred at 292 nm. This purified fraction was used for high resolution mass spectrometric analysis. Several scans were made using ionization temperatures from 90-180 degrees Centigrade to increase the possibility of detecting impurities. […] The results shown on Table 3 confirm those previously recorded for petroleum ether solubles of HPBF and cholestrol inhibitor I. In a final experiment, the effects of cholestrol inhibitor I and lemon grass oil on hepatocyte HMG Co-A reductase and FAS activities were tested. […]
expressed as mean ± SD; N = 8 chickens per group; HMGCoA reductase = […]

[2] = Serum lipids in 13-week-old WLH male chickens; format: in vivo, chicken; conditions: 20 ppm in corn diet, fed four weeks
From the text: as §1
Cholesterol inhibitor I was re-chromatographed by HPLC and the UV absorption spectrum obtained. Maximum absorption occurred at 292 nm. This purified fraction was used for high resolution mass spectrometric analysis. Several scans were made using ionization temperatures from 90-180 degrees Centigrade to increase the possibility of detecting impurities. The high resolution mass spectrometric analysis and measurements of different peaks gave a molecular ion peak at m/e 424 and main peaks at m/e 385, 205 and 165 corresponding to C29 H44 O2 (molecular formula) C25 H36 O2, C13 H17 O2 and C10 H13 O2 moieties, respectively, which are characteristic fragmentation moieties for d-alpha-tocotrienol. Lemon grass oil is a rich source of d-alpha-tocotrienol. This product and cholesterol inhibitor I at 20 ppm were compared with the petroleum ether soluble fraction of HPBF (20% equivalent HPBF) in a group of older male White Leghorn chickens (Table 3). The results shown on Table 3 confirm those previously recorded for petroleum ether solubles of HPBF and cholestrol inhibitor I. In a final experiment, the effects of cholestrol inhibitor I and lemon grass oil on hepatocyte HMG Co-A reductase and FAS activities were tested. Both components tested in the concentration range 5-100 microgram/ml, produced a concentration-dependent suppression of HMG Co-A reductase and concentration-dependent enhancement of FAS activity (Table 4).
^1 Feeding period was four weeks; Time of killing was 0800; Data
expressed as mean ± SD; N = 8 chickens per group; HMGCoA reductase =

[3] = molecular target: T1, HMG-CoA reductase (Homo sapiens, UniProt P04035); assay: Hepatic HMG-CoA reductase activity in 3-week-old broiler male chickens fed supplemented corn diet; format: in vivo, chicken; set-up: preparing subcellular fractions of liver and assay procedures for beta-hydroxy-beta-methylglutaryl coenzyme A (HMG Co-A) reductase; from tissue; host or cells: chicken liver (microsomal fraction); conditions: liver; for HMG-CoA Reductase: mean ± SD, N = 9
T1 sequence (P04035 1-888): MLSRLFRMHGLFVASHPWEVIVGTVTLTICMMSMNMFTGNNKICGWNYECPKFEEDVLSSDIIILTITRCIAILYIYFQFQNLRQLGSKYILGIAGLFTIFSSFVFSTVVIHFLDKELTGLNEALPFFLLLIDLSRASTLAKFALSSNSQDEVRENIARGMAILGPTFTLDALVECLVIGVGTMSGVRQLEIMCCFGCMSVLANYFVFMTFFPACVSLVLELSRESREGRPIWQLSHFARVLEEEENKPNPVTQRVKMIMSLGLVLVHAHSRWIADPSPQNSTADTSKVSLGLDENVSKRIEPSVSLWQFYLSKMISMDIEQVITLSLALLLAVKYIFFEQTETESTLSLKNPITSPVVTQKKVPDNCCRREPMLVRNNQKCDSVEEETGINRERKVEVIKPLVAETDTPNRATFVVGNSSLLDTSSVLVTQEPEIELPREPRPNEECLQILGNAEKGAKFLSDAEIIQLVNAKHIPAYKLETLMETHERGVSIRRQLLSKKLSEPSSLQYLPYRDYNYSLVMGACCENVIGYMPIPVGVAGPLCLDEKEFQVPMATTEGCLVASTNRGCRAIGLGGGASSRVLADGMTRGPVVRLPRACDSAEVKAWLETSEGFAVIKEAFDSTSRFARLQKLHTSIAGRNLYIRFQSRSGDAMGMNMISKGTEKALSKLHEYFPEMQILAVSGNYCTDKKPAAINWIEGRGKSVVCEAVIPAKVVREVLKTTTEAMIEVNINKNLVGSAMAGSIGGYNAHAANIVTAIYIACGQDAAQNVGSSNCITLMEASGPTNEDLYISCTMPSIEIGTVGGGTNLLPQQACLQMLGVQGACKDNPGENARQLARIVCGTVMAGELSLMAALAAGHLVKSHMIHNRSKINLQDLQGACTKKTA
From the text: as §1
For large scale preparation of these compounds, 10 grams of the petroleum ether soluble fraction of HPBF were dissolved in 10 ml petroleum ether and applied to a 90×3.5 cm silicic acid column (Bio-Silica, 100-200 mesh). The column was washed with 2,500 ml petroleum ether followed by stepwise elution with increasing amounts of ether in petroleum ether. Fraction 8 of the column corresponded to HPLC fraction 5. A concentration-dependent suppression of HMG Co-A reductase activity and enhancement of FAS activity was noted within this range. Serum total and LDL cholesterol levels also fell in a dose-dependent response. […] In a companion experiment, using the same control birds, the effect of cholesterol inhibitor I at 5 ppm is compared to the effect of the petroleum ether solubles of HPBF at 20% equivalent on weight gain, HMG Co-A reductase and FAS activities, serum cholesterol and serum triglyceride levels (Table 2). […] Serum triglyceride levels reflected the influence of the diet on FAS activity. […] Cholesterol inhibitor I was a more powerful suppressor of LDL cholesterol (Table 2).
^1 Feeding period was 3 weeks; Time of killing was 0800; Data
expressed as mean ± SD; N = 9 chickens per group; HMGCoA reductase =
hydroxy-methyl-Glutaryl-Coenzyme A reductase.
^2 pmoles of mevalonic acid synthesized per minute per mg of […]

[4] = molecular target: T1, HMG-CoA reductase; assay: HPLC fractions checked in vitro for suppression of HMG Co-A reductase in isolated hepatocytes; format: cell-based; set-up: suppress HMG Co-A reductase activity in isolated hepatocytes; endogenous in cells; host or cells: isolated hepatocytes; conditions: HPLC fractions of petroleum ether solubles
[5] = 2.5 ppm in corn diet, fed 3 weeks
[6] = 5.0 ppm in corn diet, fed 3 weeks
[7] = 10.0 ppm in corn diet, fed 3 weeks
[8] = 15.0 ppm in corn diet, fed 3 weeks
[9] = 20.0 ppm in corn diet, fed 3 weeks

HMG-CoA Reductase, percentage of control [3, 5]: 87 Percentage of respective contr | HMG-CoA Reductase [3, 5]: 172 ± 12 pmoles of mevalonic acid synth | HMG-CoA Reductase, percentage of control [3, 6]: 81 Percentage of respective contr | HMG-CoA Reductase [3, 6]: 161 ± 12 pmoles of mevalonic acid synth | HMG-CoA Reductase, percentage of control [3, 7]: 73 Percentage of respective contr | HMG-CoA Reductase [3, 7]: 144 ± 9 pmoles of mevalonic acid synth | HMG-CoA Reductase, percentage of control [3, 8]: 68 Percentage of respective contr | HMG-CoA Reductase [3, 8]: 135 ± 8 pmoles of mevalonic acid synth | HMG-CoA Reductase, percentage of control [3, 9]: 66 Percentage of respective contr | HMG-CoA Reductase [3, 9]: 130 ± 6 pmoles of mevalonic acid synth | HMG-CoA Reductase ([3]; corn diet + 5 ppm (Table 2)): 134 ± 6 pmoles of mevalonic synthesize | Effect on HMG Co-A reductase in isolated hepatocytes [4]: significant inhibition
Compound: CC(C)=CCC/C(C)=C/CC/C(C)=C/CC[C@]1(C)CCc2c(C)c(O)c(C)c(C)c2O1 [Cholesterol inhibitor I, 2,5,7,8-tetramethyl-2 (4,8, 12-trimethyltrideca-3,7, 11-trienyl)chroman-6-ol]
Fatty Acid Synthetase, percentage of control [1]: 111 Percentage of respective contr | Fatty Acid Synthetase ([1]; mean ± SD, N = 8): 292 ± 9 nmoles of NADPH oxidized per m | Concentration in Serum LDL-Chol., percentage of control [2]: 66 Percentage of respective contr | Concentration in Serum HDL-Chol. ([2]; mean ± SD, N = 8): 58 ± 3 mg/100 ml | Concentration in Serum LDL-Chol. ([2]; mean ± SD, N = 8): 44 ± 3 mg/100 ml | Concentration in Serum Total Cholesterol ([2]; mean ± SD, N = 8): 103 mg/100 ml
